Test results published in PMC7551591, “The Effect of Resveratrol or Curcumin on Head and Neck Cancer Cells Sensitivity to the Cytotoxic Effects of Cisplatin” (Nutrients, 2020).

Legend:
Type in all cases: cell-based, human
[1] = test system: P21 (CDKN1A) gene expression in HUVEC; assay: Real-time PCR of CDKN1A (P21) gene, normal cells; conditions: 24 h, reference gene HPRT, 2^-ΔΔCt vs control
Source text: In order to isolate of total RNA from treated or untreated cells was used TRIzol reagent (Invitrogen)-a monophasic solution of phenol and guanidine isothiocyanate. During the isolation phases, the TRIzol reagent maintains RNA integrity, while disrupting cells and dissolving cell components. The addition of chloroform followed by centrifugation ensures the separation phase of the solution into an aqueous phase and an organic phase. RNA remains in the aqueous phase and is recovered by isopropanol precipitation. The RNA pellet washed once with 75% ice-cold ethanol and entrifuged at 10,000× g for 5 min at 4 °C. The […] is redissolved in nuclease-free water and incubating in a 60 °C water bath for 10 min. The concentration of isolated RNA was assessed using a NanoDrop spectrophotometer ([…], Montchanin, DE, USA). RNA purity was determined by A260/A280 ratios (an […] ratio as close as possible to 2 indicates the presence of highly purified RNA). Reverse transcription of messenger RNA molecules was performed using the High-capacity cDNA Reverse Transcription Kit from Applied Biosystems, using non-specific, randomic primers, following the manufacturer's instructions (Table 1). […] The obtained cDNA was stored at 4 °C and further used in the amplification reaction Real-Time PCR (RT-PCR). […] The samples were analyzed using the formula 2^-ΔΔCt.

PE/CA-PJ49 tumor cells [2] = assay: MTS cell proliferation assay (CellTiter 96), tumor cells; conditions: 24 h, PE/CA-PJ49 vs HUVEC
Source text: In order to determine the effect of CRM or RSV on proliferative activity of cisplatin treated cells was used the Promega CellTiter 96® AQueous One Solution Cell Proliferation Assay, a test that is based on the reduction of yellow MTS tetrazolium salt by the viable cells and generation of colored formazan soluble in the culture medium. The product was spectrophotometrically quantified by measuring the absorbance at λ = 490 nm using a Dynex plate reader (DYNEX Technologies-MRS, Chantilly, VA, USA). Results were expressed as mean values of three determinations ± standard deviation (SD). Untreated cells served as control and considered to have a proliferation index (PI = absorbance of treated cells/absorbance of untreated cells) equal to 1.

PE/CA-PJ49 tumor cells [3] = assay: MTT drug sensitivity (viability) assay, tumor cells; conditions: 24 h; for IC50: Homo sapiens; for IC50 / IC 25: MTT; for Selectivity Index (SI): IC50 in HUVEC / IC50 in PE/CA-PJ49
Experimental: The MTT assay is based on the ability of viable cells to reduce the reagent 3-(4,5-dimethylthiazol-2-yl)-2,5-diphenyltetrazolium bromide to colored formazan compounds [48]. Because the transformation is only possible in viable cells, the amount of blue formazan is proportional to the number of viable cells and thus, a linear dependence exists between cell activity and absorbance. Cells were seeded in triplicate in 96-well plates at a density of 5000 cells/well, incubated at 37 °C for 24 h. […] After the incubation period, 20 μL MTT (5 mg/mL in PBS) was added and further incubated for 4 h. The supernatant was removed, and the formazan product was analyzed spectrophotometrically (570 nm) after dissolution in DMSO. Wells without cells serve as a blank, and their absorbance was subtracted from the other results. Untreated cells were used as control and their viability was assumed as 100%. Results were expressed as mean values of three determinations ± standard deviation (SD). Data are presented as percent of cell viability and compared to untreated [Viability% = (T − B)/(U − B) × 100, {where T = absorbance of treated cells; U = absorbance of untreated cells, B = absorbance of blank}]. Once percent viability was obtained, the drug response curve was generated, and inhibitory concentration (IC50 and IC25) was calculated using GraphPad Prism version 5.01 [49].
SI values of more than 2 were considered as indicative of high selectivity.
The anticancer cytotoxic activity in vitro was evaluated by the MTT assay. […] The most widely used and informative measure of a drug’s efficacy is IC50-the half-maximal inhibitory concentration. IC50 was determined at half of the difference between the maximum (plateau) and minimum absorbance values, by plotting the absorbance value at 570 nm (Y axis) versus the concentration of the compound analysed (X axis). The IC50 values were reported as a mean of three independent experiments ± standard deviation (S.D.).

[4] = test system: p21 protein (CIP1/CDKN1A) expression in HUVEC; assay: Total p21 protein ELISA in cell lysates, normal cells; conditions: 24 h; for n-fold p21 Protein Expression HUVEC: vs control
Experimental: (§1) After incubation, cells were washed twice with ice-cold PBS, scraped, pelleted and lysed in RIPA buffer (Pierce) supplemented with protease inhibitor cocktail (Roche) and phosphatase inhibitor (Roche) for 30 min on ice. The lysates were transfered into microcentrifuge tubes and centrifuged at 14,000× g for 5 min at 4 °C followed by sonication (10–15 s × 3). The supernatants were collected into clean microcentrifuge tubes and stored at −80 °C. Lysates protein concentration were quantified by BCA protein assay kit (Thermo Scientific) and aliquots of 50 μg of total cell lysate were used for ELISA assay.
(§2) DuoSetR IC ELISA-Human Total p21/CIP1/CDKN1A(: DYC1047-2) was purchased from R&D Systems Inc. and contains the basic components required for the development of sandwich ELISAs to measure human p21 protein also known as CIP1 and CDKN1A in cell lysates. An immobilized capture antibody specifically binds human p21. After washing away unbound material, a biotinylated detection antibody specific for human p21 is used to detect the captured protein, utilizing a standard Streptavidin-HRP format. All experiments were performed in triplicates and absorbance was measured at λ = 450 nm using a Dynex plate reader.
(§3) In cancer development and evolution p21 protein might acts as an oncogene or tumor suppressor and for this reason it could be an important player in processes such as the cancer aggressiveness or the response to chemotherapy. In this study, using ELISA assay we analyzed the expression level of p21 in the tumor cells (PE-CA/PJ49) compared to a normal cells (HUVEC).

[5] = test system: p21 protein (CIP1/CDKN1A) expression in PE/CA-PJ49; assay: Total p21 protein ELISA in cell lysates, tumor cells; conditions: 24 h; for n-fold p21 Protein Expression PE/CA-PJ49: vs control
Experimental: as §1, §2, §3

COc1cc(/C=C/C(=O)CC(=O)/C=C/c2ccc(O)c(OC)c2)ccc1O [CRM, Curcumin]
n-fold P21 gene expression HUVEC ([1]; 15 μM CRM): 1.39
proliferative process (IP) (PE/CA-PJ49 tumor cells [2]; 15 μM CRM): much more intense decrease of the proliferative process
cell viability (MTT) (PE/CA-PJ49 tumor cells [3]; 15 μM CRM, PE/CA-PJ49 vs HUVEC): reduced tumor cell viability compared to normal cells HUVEC
IC50 (PE/CA-PJ49 tumor cells [3]; PE/CA-PJ49): 16.3 ± 3.4 µM
Selectivity Index (SI) (PE/CA-PJ49 tumor cells [3]): 3.66
IC 25 (PE/CA-PJ49 tumor cells [3]; PE/CA-PJ49): 7.9 ± 1.8 µM
p21 pg/mL HUVEC ([4]; 15 μM CRM): 221 pg/mL
n-fold p21 Protein Expression HUVEC ([4]; 15 μM CRM): 1.21
p21 pg/mL PE/CA-PJ49 ([5]; 15 μM CRM): 941 pg/mL
n-fold p21 Protein Expression PE/CA-PJ49 ([5]; 15 μM CRM): 1.51

Oc1ccc(C=Cc2cc(O)cc(O)c2)cc1 [RSV, 3,5,4′-trihydroxystilbene]
n-fold P21 gene expression HUVEC ([1]; 40 μM RSV): 0.36
proliferation (index proliferation, IP) (PE/CA-PJ49 tumor cells [2]; 40 μM RSV): affected the proliferation of tumor cells PE/CA-PJ49 much more than the one of normal cells HUVEC
IC50 (PE/CA-PJ49 tumor cells [3]; PE/CA-PJ49): 46.8 ± 2.6 µM
Selectivity Index (SI) (PE/CA-PJ49 tumor cells [3]): 2.36
IC 25 (PE/CA-PJ49 tumor cells [3]; PE/CA-PJ49): 17.6 ± 1.5 µM
cell viability (MTT) (PE/CA-PJ49 tumor cells [3]; PE/CA-PJ49, RSV 40 μM vs untreated cells): significantly affected
p21 pg/mL HUVEC ([4]; 40 μM RSV): 148 pg/mL
n-fold p21 Protein Expression HUVEC ([4]; 40 μM RSV): 0.81
p21 pg/mL PE/CA-PJ49 ([5]; 40 μM RSV): 1550 pg/mL
n-fold p21 Protein Expression PE/CA-PJ49 ([5]; 40 μM RSV): 2.48
